“Also recorded” adds a separate entry of the source.
Assays:
Format in all cases: cell-based, human
[1] = test system: T and B leukemia/lymphoma cell lines and activated PBLs treated with FasL; test: Fas/CD95-mediated cell death (MTT test)
Protocol: 2 to 4.10^4 cells were deposited in wells in a 96-well plate. The cells were incubated, in the presence of the different reactants for the times specified, at 37° C. in a final volume of 100 or 200 μl.
The MTT test enabled to measure the activity of a mitochondrial enzyme, the dehydrogenase succinate which transforms MTT (or 3-(4,5-dimethylthiazol-2-yl)-2,5-diphenyltetrazolium) bromide originally yellow in colour and soluble, into blue formazan crystals, insoluble in aqueous phase. Upon completion of the different treatments, the living cells were quantified by adding in each well 15 μl PBS (Phosphate Buffered Saline) containing 5 mg/ml MTT. […] Spectrophotometric reading of absorbance was done at 570 nm. The measurement of the optical density is directly proportional to the number of living cells and the percentage of cell death was calculated with the following formula: 100-[(DO treated cells/DO non-treated cells)*100].

[2] = test system: CD95; test: CD95 capping (CD95-CAP), fluorescence confocal microscopy; settings: leukemic cell lines; culture up to 24 hours
Protocol: The cells were left to adhere on a slide pre-treated with poly-L-lysin (ESCO, VWR) for 5 minutes then incubated with the different reactants. The cells activated with the anti-Fas APO1-3 agonist antibody were washed and marked directly with the anti-mouse secondary antibody coupled with Alexa555 fluorochrome. The cells incubated with Rituximab (anti-CD20) were washed in a cold PBS buffer then fixed with a PBS/4% PFA (paraformaldehyde) solution for 15 min. […] The cells were washed in PBS medium then the slide was dried and the cells were placed in a mounting medium, Fluoroprep (Biomerieux) and analysed by fluorescence confocal microscopy (LSM SP5, Leica, Germany) with an x63 zoom. The DAPI (200 ng/ml) allowed colouring the nuclei.

[3] = test system: CD95; test: CD95 expression; settings: 2-APB or BAPTA-AM regimens
Protocol: This technique allowed detecting the presence of a protein on the cell surface. All the steps took place at 4° C. so as to reduce membrane proteins endocytosis and loss of cell labelling.
Plasma membrane of the cells (10^6 cells per marking) was saturated for 5 minutes in 1 ml PBS containing 1% (w/v) BSA (bovine serum albumin) and 1% (v/v) foetal veal serum (FVS). This solution was used for washings and antibody dilutions.
The cells were incubated for 30 minutes with 50 μl primary antibody (anti-Fas DX2 clone at 10 μg/ml), washed twice with the PBS/BSA/FCS solution, then incubated with 50 μl of a secondary antibody coupled with phycoerythrin for 30 minutes. After 3 washings, the cells were re-suspended in 200 μl PBS/BSA/SVF and analysed immediately by flow cytometry (FACsCalibur, BD Biosciences). The fluorescence intensity was analysed with the Cellquest software.

[4] = test system: CD95; test: CD95 aggregation by size exclusion chromatography; settings: Jurkat cells; BAPTA-AM pre-treatment
From the text: In order to validate that CD95 underwent aggregation upon down-modulation of intracellular calcium, the formation the micrometer-sized CD95-containing domain was investigated by using size exclusion chromatography (FIG. 10). Decrease in intracellular calcium allowed the redistribution of a significant proportion of CD95 into heavy weighted fractions (FIG. 10), which confirmed that the slight down-modulation of [Ca^2+]i led to the formation of cluster of CD95. It was also observed that calcium-driven CD95-CAP occurred independently of de novo expression of CD95L since no trace of the membrane-bound ligand was detected. […] Since CD95 clustering is an early step of the CD95 molecular ordering, the impact of intracellular calcium on the initial events of CD95 pathway and on cell death was further assessed.

[5] = test system: DISC macro-complex (Fas/FADD/Caspase-8); test: DISC formation: Fas immunoprecipitation and Western blot; settings: vs untreated cells
Protocol: Cells were incubated with 1 μg/ml APO1-3 for 30 minutes at 4° C. After washing, cells were incubated for 15 minutes at 4° C. (0 minutes) or at 37° C. (15 minutes) and then lysed for 30 minutes at 4° C. in a lysis buffer (25 mM HEPES pH 7.4, 1% Triton X-100, 150 mM NaCl, 2 mM EDTA, a cocktail including protease inhibitors (Sigma)). The lysed cells were then centrifugated for 15 minutes at 15000 rpm in order to eliminate genomic DNA, and the supernatant was kept. The sepharose beads which were coupled with protein A were added to the lysate and the mixture was incubated for 2 hours. The beads were recovered, washed intensively and the immunoprecipitated proteins were re-suspended in a denaturing and reducing buffer (0.01M Tris-HCl pH6.8, 10% glycerol (v/v), 85 mM sodium dodecyl sulfate (SDS), 5% (v/v) […] and 0.005% (w/v) bromophenol blue) then heated at 100° C. for 5 minutes. The samples were deposited in an acrylamide/Bisacrylamide gel and separated by electrophoresis. The proteins were transferred from the gel into a nitrocellulose membrane using a semi-dry medium transfer technique for 2 hours at constant amperage (0.8 mA/cm^2). […] After transfer, the nitrocellulose membrane was saturated with proteins for 30 minutes with a TBST buffer (50 mM Tris pH=8, 0.15M sodium chloride, 0.05% (v/v) Tween-20) containing 5% (w/v) skimmed powdered milk (TBSTM). After washing with TBST, the membrane was incubated for 2 hours with the primary antibody in TBST. The membrane was washed intensively then incubated for one hour with TBST containing the secondary peroxidase-coupled antibody. […] This solution contained a substrate metabolised by peroxidase to yield a luminescent compound, which allowed marking a radiographic film (Amersham).

[6] = test system: Raji, BL2, Jurkat cell lines and activated PBL; test: Apoptosis % by loss of mitochondrial membrane potential
Protocol: 2 to 4.10^4 cells were deposited in wells in a 96-well plate. The cells were incubated, in the presence of the different reactants for the times specified, at 37° C. in a final volume of 100 or 200 μl. The apoptotic cells were identified in the cellular populations by measuring mitochondrial de-polarisation. […] These potentiometric probes allowed monitoring the variations of the mitochondrial membrane potential. […] Following cell treatment with the different drugs, the former were placed in the presence of TMRM or DIOC6 at 10 nM concentration, for 20 minutes at 37° C. then the fluorescence of the cells was analysed by flow cytometry.

Question: `CC(=O)OCOC(=O)CN(CC(=O)OCOC(C)=O)c1ccccc1OCCOc1ccccc1N(CC(=O)OCOC(C)=O)CC(=O)OCOC(C)=O` [BAPTA-AM, 1,2-bis-(o-Aminophenoxy)ethane-N,N,N′,N′-tetraacetic tetra-(acetoxymethyl) acid Ester] was tested. Which “sensitisation to the Fas-mediated apoptotic signal (% cell death)” value ([1]; BAPTA-AM 1 μM pre-incubation then FasL, leukemia/lymphoma cell lines and activated PBLs) did it give?
Answer: sensitised to the Fas-mediated apoptotic signal; also recorded: increase in percentage of cell death

Question: What about the “sensitisation to the Fas-mediated apoptotic signal (% cell death)” value ([1]; BAPTA-AM 1 μM then FasL, BL2 cell line devoid of endogenous Fas) of the same molecule?
Answer: have not been sensitised

Question: What about the “CD95-mediated apoptotic signal in CD95-resistant cells” value ([1]; Jurkat-CD95Q257K, pre-incubation with non-cytotoxic doses) of the same molecule?
Answer: restored the CD95-mediated apoptotic signal at a level comparable to the parental cell line

Question: What about the “apoptotic signal by the agent alone” value ([1]; leukemic cell lines, long-term culture up to 24 hours, no CD95L) of the same molecule?
Answer: did not trigger the apoptotic signal

Question: What about the CD95-CAP formation [2] of the same molecule?
Answer: drives CD95-CAP

Question: And the “expression of CD95” value [3]?
Answer: did not modify the expression of CD95

Question: And the CD95 aggregation [4]?
Answer: formation of the CD95 aggregation

Question: And the “DISC formation / FADD recruitment upon CD95 stimulation” value ([5]; H9, Jurkat, activated PBTs, non-cytotoxic concentrations)?
Answer: dramatically improved the DISC formation; also recorded: induction of DISC formation

Question: And the “formation of the DISC macro-complex” value ([5]; H9 cells, BAPTA-AM 1-10 μM or ionomycine 1 μM pre-incubation, then anti-Fas APO1-3 1 μg/ml 15 min 37° C.)?
Answer: enhanced formation of the DISC macro-complex

Question: What about the “potentiation of apoptotic signals mediated by edelfosine or Rituximab” value ([6]; B lymphoma cell lines, BAPTA-AM 1 μM pre-incubation) of the same molecule?
Answer: allowed potentiating apoptotic signals

Question: And the “apoptotic signal with Rituximab associated with BAPTA-AM” value ([6]; BL2 cell line, deprived of Fas receptor, Rituximab resistant)?
Answer: no increase in the apoptotic signal has been observed

Reference: patent US20120034210A1, “COMPOSITIONS FOR POTENTIATING APOPOSIS SIGNALS IN TUMOUR CELLS” (INSTITUT BERGONIE, priority 2008, published 2012)
